These results are taken from PubChem BioAssay (NCI).

Molecules are shown by their SMILES.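 In this assay, cells in 96-well plates receive the compound at five concentrations for 48 hours. Endpoints are linearly interpolated between the surrounding concentrations. GI50 marks 50% less growth. The concentration for full growth arrest is given as TGI.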 Bounds are passed on as bounds.

The term GI50 denotes the concentration that inhibits growth by half. A word on the TGI: it is the concentration at which net growth stops.

Among the test systems are PC-3 prostate; RPMI-8226 leukemia; CCRF-CEM leukemia; CAKI-1 renal; KM12 colon; HCC-2998 colon; OVCAR-5 ovarian; SK-MEL-2 melanoma; HT29 colon; UACC-257 melanoma.
Holding throughout (assay): DTP human tumour cell line panel, 48 h

As for `COC(=O)c1cc2c(cc1Cl)SC(N(N(C)C)S(=O)(=O)c1ccc(Cl)cc1)=NS2(=O)=O`, the GI50 was 7.63 µM in the experiment on PC-3 prostate; 17.1 µM in the experiment with RPMI-8226 leukemia; 14.1 µM in the experiment with CCRF-CEM leukemia; 21.3 µM with CAKI-1 renal; 13.8 µM in the experiment on KM12 colon; 16.1 µM in the experiment on HCC-2998 colon. Moreover, the GI50 with OVCAR-5 ovarian is 20.1 µM; in the experiment on SK-MEL-2 melanoma, 20.5 µM; in the experiment on HT29 colon it was 16.1 µM. The concentration for total growth inhibition (TGI) with PC-3 prostate is 20.5 µM; in the experiment with RPMI-8226 leukemia, 53.4 µM; in the experiment on CCRF-CEM leukemia it was 37.1 µM; with CAKI-1 renal, 46.1 µM; with KM12 colon, 27 µM; in the experiment on HCC-2998 colon, 32.7 µM. Also, the concentration for total growth inhibition (TGI) in the experiment on OVCAR-5 ovarian turned out to be 46.7 µM; with SK-MEL-2 melanoma it was 59 µM; with HT29 colon, 31.9 µM.

With `CC12CCC(O)CC1CCC1C2CCC2(C)C(C3=CC(=O)OC3)CCC12` (stereo unspecified), the GI50 in the experiment on PC-3 prostate was > 67.4 µM; with RPMI-8226 leukemia it was 1.27 µM; with CAKI-1 renal it was > 55.7 µM; in the experiment on KM12 colon it was > 100 µM; with HCC-2998 colon, > 100 µM; in the experiment on OVCAR-5 ovarian, > 100 µM. Besides, the GI50 was > 100 µM in the experiment on UACC-257 melanoma, 7.49 µM in the experiment with SK-MEL-2 melanoma and > 100 µM with HT29 colon. Also, the total growth inhibition concentration (TGI) with PC-3 prostate, in the experiment on RPMI-8226 leukemia, in the experiment on CAKI-1 renal, in the experiment on KM12 colon, in the experiment with HCC-2998 colon and with OVCAR-5 ovarian was > 100 µM throughout. Also, the TGI in the experiment with UACC-257 melanoma is > 100 µM; in the experiment on SK-MEL-2 melanoma, 29.8 µM; with HT29 colon, > 100 µM.

Turning to `C=CCNc1cccc2c1C(=O)c1ccccc1C2(O)CC=C` (stereo unspecified), the GI50 is 26.6 µM in the experiment on PC-3 prostate; 17.4 µM in the experiment on RPMI-8226 leukemia; 22.6 µM in the experiment with CCRF-CEM leukemia; 23.6 µM in the experiment on KM12 colon; 20.1 µM in the experiment with HCC-2998 colon; 31.5 µM in the experiment on OVCAR-5 ovarian. The GI50 is 15 µM with UACC-257 melanoma, 20.7 µM with SK-MEL-2 melanoma and 16.8 µM with HT29 colon. Moreover, the concentration for total growth inhibition (TGI) amounted to 73.8 µM in the experiment with PC-3 prostate; 44.6 µM in the experiment on RPMI-8226 leukemia; 52 µM in the experiment on CCRF-CEM leukemia; 56.9 µM in the experiment on KM12 colon; 37.4 µM with HCC-2998 colon; 67.9 µM with OVCAR-5 ovarian. The concentration for total growth inhibition (TGI) in the experiment on UACC-257 melanoma is 39 µM; in the experiment on SK-MEL-2 melanoma, 47.6 µM; in the experiment with HT29 colon, 36.7 µM.

`Clc1ccc(Nc2nc3ccccc3c3occc23)cc1`: the GI50 with PC-3 prostate is 7 µM; with RPMI-8226 leukemia, 11.3 µM; with CAKI-1 renal, 3.07 µM; in the experiment with KM12 colon it was 6.46 µM; in the experiment on HCC-2998 colon, 6.41 µM; with OVCAR-5 ovarian, 9.4 µM. Besides, the GI50 was 10.4 µM in the experiment with UACC-257 melanoma and 9.53 µM in the experiment with SK-MEL-2 melanoma. Besides, the TGI is 13.5 µM in the experiment with PC-3 prostate; 27.4 µM in the experiment with RPMI-8226 leukemia; 10.2 µM with CAKI-1 renal; 13.8 µM in the experiment with KM12 colon; 12.7 µM in the experiment with HCC-2998 colon; 18.4 µM in the experiment with OVCAR-5 ovarian. Also, the TGI in the experiment with UACC-257 melanoma was determined as 19.2 µM; in the experiment on SK-MEL-2 melanoma, 21.7 µM.

Take `CC(C)(CCC(C)(C)c1ccccc1)c1ccccc1`: the TGI is > 100 µM with PC-3 prostate; 36.1 µM in the experiment with RPMI-8226 leukemia; 39.9 µM with CCRF-CEM leukemia; 48.2 µM with CAKI-1 renal; 30.6 µM in the experiment with KM12 colon; 33.5 µM with OVCAR-5 ovarian. Moreover, the TGI is 29.2 µM in the experiment on UACC-257 melanoma, 31.5 µM in the experiment with SK-MEL-2 melanoma and 27.8 µM with HT29 colon.

As to `O=[N+]([O-])c1ccc2c(c1)S(=O)c1ccccc1-2` (stereo unspecified), the TGI with PC-3 prostate, in the experiment with RPMI-8226 leukemia, in the experiment on CCRF-CEM leukemia, in the experiment on CAKI-1 renal, in the experiment with KM12 colon and in the experiment with OVCAR-5 ovarian was > 100 µM in each case. Besides, the TGI in the experiment on UACC-257 melanoma, in the experiment with SK-MEL-2 melanoma and in the experiment with HT29 colon was > 100 µM in each case.

On to `COc1cc(/C=C/C(=O)c2cc(OC)c(OC)c(OC)c2)cc(OC)c1OC`, for which the GI50 with PC-3 prostate is 5.32 µM; in the experiment on RPMI-8226 leukemia, 2.56 µM; in the experiment with CCRF-CEM leukemia, 2.25 µM; in the experiment with CAKI-1 renal, 1.23 µM; in the experiment on KM12 colon, 1.98 µM; in the experiment with HCC-2998 colon it was 2.95 µM. The GI50 with OVCAR-5 ovarian was 5.68 µM; with UACC-257 melanoma, 4.35 µM; in the experiment on HT29 colon, 3.64 µM. For the same compound, the TGI in the experiment on PC-3 prostate is 27.8 µM; in the experiment with RPMI-8226 leukemia, 19.4 µM; in the experiment with CCRF-CEM leukemia it was > 100 µM; in the experiment with CAKI-1 renal it was 3.87 µM; in the experiment with KM12 colon, 4.84 µM; in the experiment on HCC-2998 colon, 6.65 µM. Besides, the results for the TGI in the experiment on OVCAR-5 ovarian, with UACC-257 melanoma and in the experiment with HT29 colon were 20.1 µM, 34.6 µM and 15 µM, respectively.

On to `Cc1[nH]nc(C(=O)Nc2n[nH]c3ccccc23)c1[N+](=O)[O-]`, for which the GI50 was > 100 µM with PC-3 prostate; > 71.5 µM in the experiment on RPMI-8226 leukemia; > 100 µM in the experiment with CAKI-1 renal; > 100 µM in the experiment with KM12 colon; > 100 µM in the experiment on HCC-2998 colon; > 100 µM with OVCAR-5 ovarian. The GI50 in the experiment on UACC-257 melanoma, in the experiment on SK-MEL-2 melanoma and with HT29 colon was > 100 µM throughout. For the same compound, the TGI in the experiment on PC-3 prostate, in the experiment on RPMI-8226 leukemia, with CAKI-1 renal, in the experiment with KM12 colon, in the experiment with HCC-2998 colon and in the experiment on OVCAR-5 ovarian was > 100 µM each time. In addition, the TGI with UACC-257 melanoma, in the experiment with SK-MEL-2 melanoma and in the experiment with HT29 colon was > 100 µM in each case.

Regarding `Cc1ccc(-n2c(-c3ccc(Cl)cc3)cs/c2=N\NC(=O)COc2n[nH]c(=O)c3ccccc23)cc1`, the GI50 in the experiment on PC-3 prostate was > 100 µM; in the experiment with RPMI-8226 leukemia, > 100 µM; in the experiment with CCRF-CEM leukemia, > 100 µM; with CAKI-1 renal, 25.7 µM; with KM12 colon, > 100 µM; with OVCAR-5 ovarian, > 100 µM. Also, the values for the GI50 in the experiment with UACC-257 melanoma, in the experiment with SK-MEL-2 melanoma and with HT29 colon were 80.2 µM, > 100 µM and > 100 µM, respectively. The concentration for total growth inhibition (TGI) in the experiment on PC-3 prostate was > 100 µM; in the experiment on RPMI-8226 leukemia it was > 100 µM; in the experiment on CCRF-CEM leukemia, > 100 µM; with CAKI-1 renal, 72.7 µM; in the experiment with KM12 colon it was > 100 µM; in the experiment on OVCAR-5 ovarian it was > 100 µM. The TGI in the experiment with UACC-257 melanoma, in the experiment on SK-MEL-2 melanoma and with HT29 colon was > 100 µM throughout.

For `C=C1C(=O)O[C@H]2[C@H]1CC/C(COC(=O)C(=O)c1cn(C)c3ccc(OC)cc13)=C\CC[C@@]1(C)O[C@@H]21`, the GI50 was 5.89 µM in the experiment with PC-3 prostate; 2.34 µM with RPMI-8226 leukemia; 2.39 µM in the experiment with CCRF-CEM leukemia; 7.25 µM with CAKI-1 renal; 6.41 µM in the experiment on KM12 colon; 5.14 µM in the experiment on HCC-2998 colon. The GI50 with OVCAR-5 ovarian is 6.12 µM; with UACC-257 melanoma it was 4.82 µM; in the experiment with HT29 colon, 2.23 µM. Moreover, the TGI came to 10.8 µM in the experiment with PC-3 prostate; 19.5 µM in the experiment on RPMI-8226 leukemia; 22.4 µM with CCRF-CEM leukemia; 21.8 µM in the experiment with CAKI-1 renal; 13.3 µM in the experiment with KM12 colon; 9.72 µM in the experiment on HCC-2998 colon. In addition, the TGI is 13.6 µM in the experiment with OVCAR-5 ovarian, 9.73 µM in the experiment on UACC-257 melanoma and 5.4 µM with HT29 colon.

Regarding `O=C(Nc1ccccc1F)c1ccc(NC2=C(Cl)C(=O)N(Cc3ccccc3)C2=O)cc1`, the GI50 in the experiment on PC-3 prostate is 3.39 µM; in the experiment on RPMI-8226 leukemia it was 1.83 µM; in the experiment on CAKI-1 renal, 1.7 µM; in the experiment on KM12 colon, 14.8 µM; in the experiment on HCC-2998 colon, 15.7 µM; in the experiment with OVCAR-5 ovarian it was 16.6 µM. Also, the GI50 in the experiment on UACC-257 melanoma is 12.5 µM; with SK-MEL-2 melanoma, 6.84 µM; in the experiment with HT29 colon it was 4.18 µM. Moreover, the concentration for total growth inhibition (TGI) turned out to be 12.8 µM in the experiment with PC-3 prostate; 3.92 µM in the experiment with RPMI-8226 leukemia; 3.25 µM in the experiment with CAKI-1 renal; 34.3 µM with KM12 colon; 29.1 µM in the experiment on HCC-2998 colon; 30.2 µM in the experiment on OVCAR-5 ovarian. Also, the figures for the TGI with UACC-257 melanoma, with SK-MEL-2 melanoma and in the experiment on HT29 colon were 29.8 µM, 18.4 µM and 13.5 µM, respectively.

Turning to `COc1cccc(C2C(C#N)=C(N)Oc3cc(OC)ccc32)c1` (stereo unspecified), the 50% growth inhibitory concentration (GI50) in the experiment with PC-3 prostate is 0.0373 µM; with RPMI-8226 leukemia, 0.0372 µM; in the experiment on CCRF-CEM leukemia it was 0.0328 µM; in the experiment with CAKI-1 renal, 0.0493 µM; with KM12 colon it was 0.0314 µM; in the experiment on HCC-2998 colon, 0.0594 µM. The 50% growth inhibitory concentration (GI50) was 0.0678 µM in the experiment on OVCAR-5 ovarian, 1.1 µM in the experiment on UACC-257 melanoma and 0.0416 µM with HT29 colon. Moreover, the total growth inhibition concentration (TGI) in the experiment with PC-3 prostate is > 94.6 µM; with RPMI-8226 leukemia, 23.7 µM; with CCRF-CEM leukemia, > 45.7 µM; in the experiment with CAKI-1 renal, > 100 µM; with KM12 colon, 5.61 µM; with OVCAR-5 ovarian, > 100 µM. Besides, the concentration for total growth inhibition (TGI) was > 83.9 µM with UACC-257 melanoma and 4.96 µM in the experiment on HT29 colon.

For the compound `COc1ccc2c(c1)C(=O)c1c-2n(CCCCl)c(=O)c2cc(N(C)C)ccc12`, the GI50 in the experiment on PC-3 prostate is 34.5 µM; in the experiment with CAKI-1 renal, 94.6 µM; in the experiment on KM12 colon it was 3.56 µM; in the experiment with HCC-2998 colon it was > 100 µM; in the experiment with OVCAR-5 ovarian it was > 100 µM; with UACC-257 melanoma it was 43 µM. The GI50 with SK-MEL-2 melanoma and with HT29 colon was > 100 µM throughout. The TGI with PC-3 prostate, in the experiment with CAKI-1 renal, in the experiment on KM12 colon, with HCC-2998 colon, with OVCAR-5 ovarian and in the experiment with UACC-257 melanoma was > 100 µM throughout. Besides, the TGI in the experiment on SK-MEL-2 melanoma and in the experiment with HT29 colon was > 100 µM each time.
